# Measured values: US8076485B2, “Methylphenidate derivatives and uses of them” (priority 2005, dated 2011)
# Legend:
# IFNγ = IFNγ release by PBL (ELISA); assay type: cell-based, human; details: Example 2, GR467 PBL, 15 μg/ml Cpd II, 15 μg/ml MP, 10 μM Dex, FIG. 4; for IFNγ release, cells stimulated with PHA: PHA 2 μg/ml, 96 hours
# Protocol: (§1) After this incubation, PHA was added to give a final concentration of 2 μg/ml, and the cells were incubated for an additional 96 hours at 37° C., 5% CO2. All cultures were performed in triplicate. Cells were then removed by centrifugation at 1000 rpm for 10 minutes, and the culture medium collected.
# (§2) Release of IL-13 and interferon gamma (IFNγ) into the culture medium was measured by ELISA. To perform the ELISA, matched pairs of antibodies against human IL-13 and IFNγ were purchased from Pierce Biotechnology and Biosource, respectively. ELISA strip well plates were coated with 10 μg/ml of antibody (in phosphate-buffered saline (PBS)) to IL-13 and 4 μg/ml of antibody to IFNγ (in PBS) overnight at room temperature. The plates were then blocked using a 4% BSA solution in PBS for one hour, followed by the addition of 50 μl of experimental culture medium per well in duplicate. The plates were incubated at room temperature for one hour and then washed using 50 mM Tris pH 8.0 with 0.1% Tween 20. Then, solutions of 400 ng/ml biotinylated second antibody to IL-13 and 500 ng/ml biotinylated second antibody to IFNγ were made in blocking buffer, and 100 μl were added per well. The plates were incubated for 1 hour and washed again. A 1:8000 dilution of Strepavidin HRP (Pierce Biotechnology) conjugate was made in blocking buffer, and 100 μl were added to the wells and incubation continued for 30 minutes. A final wash step was performed, after which 100 μl Pierce Biotechnology TMB substrate were added to each well. Color was developed for 30 minutes and stopped by adding 100 μl 0.18 NH2SO4. OD was determined using microplate reader with a 450 nm filter.
# [1] = tested on: peripheral blood lymphocytes (PBL); test: PBL proliferation assay (Promega cell titer, OD 530 nm); assay type: cell-based, human; details: for proliferation of PBL stimulated with PHA (OD at 530 nm): Example 1, donor GR283; for proliferation of PBL, both unstimulated and stimulated with PHA (OD at 530 nm): Dex 10 μM
# Protocol: Whole blood was drawn from GR283, a human volunteer with known allergies, into a glass vacutainer tube containing no anticoagulant. This blood was allowed to clot, and the serum was removed by centrifugation and then heat inactivated by placing it in a water bath at 56° C. for 30 minutes. Whole blood from GR283 was also drawn into a glass vacutainer tube containing heparin and used for peripheral blood lymphocytes (PBL) isolation as follows. Whole blood was layered over room temperature Histopaque 1077 solution and centrifuged at 2000 rpm for 15 minutes at room temperature. Cells at the plasma-Histopaque interface were then removed and washed with culture medium (IMDM medium with 10% heat-inactivated GR283 serum plus 1% penicillin/streptomycin) at 37° C.
# Then, GR283's PBL in culture medium were added to the wells to give a final concentration of 150,000 cells per well, and the plates were incubated at 37° C., 5% CO2 for 24 hours. After this incubation, phytohemagglutinin (PHA) in culture medium was added to give final concentrations of 2 μg/ml, 5 μg/ml or 20 μg/ml, final total volume of 200 μl/well, and the cells were incubated for an additional 72 hours at 37° C., 5% CO2. All cultures were performed in triplicate.
# Cell proliferation was assayed by adding 20 μl of Promega cell titer solution to each well and incubating the plate for an additional 4 hours. Promega cell titer solution is a solution containing a tetrazolium dye that is reduced by living cells to a formazan dye, and this reduction is proportional to the number of living cells present in the well. After the 4-hour incubation, the optical density (OD) at 530 nm of each well was measured. The OD at 530 nm for blank wells containing no cells was subtracted from the OD of the experimental wells.
# Then, GR467's PBL in culture medium were added to the wells to give a final concentration of 150,000 cells per well, and the plates were incubated at 37° C., 5% CO2 for 24 hours. After this incubation, PHA was added to give a final concentration of 2 μg/ml, final total volume of 200 μl/well, and the cells were incubated for an additional 72 hours at 37° C., 5% CO2. All cultures were performed in triplicate.
# Then, GR191's PBL in culture medium were added to the wells to give a final concentration of 150,000 cells per well, and the plates were incubated at 37° C., 5% CO2 for 24 hours. After this incubation, PHA was added to give final concentrations of 2 μg/ml and 5 μg/ml, final total volume of 200 μl/well, and the cells were incubated for an additional 72 hours at 37° C., 5% CO2. All cultures were performed in triplicate.
# [2] = tested on: human umbilical vein endothelial cells (HUVECs); test: HUVEC tube formation assay; assay type: cell-based; details: 18 hours, 5% FCS, 30 μg Cpd II or MP in 1 ml, LY 294002 50 μM
# Protocol: Passage 4 (i.e., […]) human umbilical vein endothelial cells (HUVECs), human source lot number 9713 (obtained from ATCC) in 1 ml of endothelial growth medium-2 (EGM-2) (obtained from Cambrex) were mixed with 30 μg of the compound of formula II (Cpd II) in endothelial basal medium-2 (EBM-2) (Cambrex) or 30 μg methylphenidate (MP) in EBM-2. Water (vehicle for the two test compounds) was used as a control, and the PI3 kinase inhibitor, LY 294002 (Sigma), at 50 μM, was included as a positive control. Then, the cells were seeded at 10,000 cells/well into the wells of a plate contained in a tube formation assay kit obtained from BD Biosciences, Rockville, Md. The wells of the plate contained an extracellular matrix protein gel. Fetal calf serum (FCS) (ATCC) was added to a final concentration of 5% to initiate tube formation. Then, the plates were incubated for 18 hours at 37° C. and 5% CO2. Following the incubation, the plates were photographed with a digital camera attached to an inverted microscope (Olympus IMT-2 set at a phase contrast (PC) of 10).
# When endothelial cells are cultured on extracellular matrix protein gels in the presence of angiogenic signals, they arrange themselves into structures loosely resembling capillary blood vessels. […]
# IL-13 = IL-13 release by PBL (ELISA); assay type: cell-based, human; details: for IL-13 release induced by PHA: Example 2, GR467 PBL, 15 μg/ml Cpd II, 15 μg/ml MP, 10 μM Dex, PHA 2 μg/ml, 96 hours, FIG. 3
# Protocol: as §1, §2
# After this incubation, PHA was added to give a final concentration of 5 μg/ml, and the cells were incubated for an additional 72 hours at 37° C., 5% CO2. All cultures were performed in triplicate. Cells were then removed by centrifugation at 1000 rpm for 10 minutes.
# The supernatants were collected, and the concentrations of IL-13 and tumor necrosis factor alpha (TNFα) in the supernatants were measured by ELISA. The IL-13 ELISA was performed as described in Example 2.
# [3] = Cpd II and MP 5, 15, 50 μg/ml, Dex 10 μg/ml, PHA 2, 5, 20 μg/ml, FIGS. 1A-C
# [4] = Example 2, donor GR467, Cpd II 5, 15, 25 μg/ml, MP 15 μg/ml, PHA 2 μg/ml, FIG. 2
# [5] = Example 3, donor GR191, Cpd II 5, 15, 25, 50 μg/ml, MP 50 μg/ml, PHA 2 and 5 μg/ml, FIGS. 5A-B
SMILES,"IFNγ release, unstimulated cells (IFNγ)","IFNγ release, cells stimulated with PHA (IFNγ)","proliferation of PBL stimulated with PHA (OD at 530 nm) [1, 3]","proliferation of PBL, both unstimulated and stimulated with PHA (OD at 530 nm) [1, 4]","proliferation of PBL, both unstimulated and stimulated with PHA (OD at 530 nm) [1, 5]",tube formation (branching and cellular interaction of endothelial cells) [2],IL-13 release induced by PHA (IL-13),"release of IL-13 from PHA-stimulated PBL (IL-13; Example 3, GR191 PBL, Cpd II 15 and 50 μg/ml, Dex 10 μM, PHA 5 μg/ml, 72 hours, FIG. 6)","IFNγ release, cells stimulated with PHA (IFNγ; listed as Methylphenidate)",proliferation of PBL stimulated with PHA (OD at 530 nm) ([1]; highest MP dose (50 μg/ml) and lowest PHA dose (2 μg/ml)),IL-13 release induced by PHA (IL-13; listed as Methylphenidate)
COC(=O)C(c1ccc(-c2ccccc2)cc1)C1CCCCN1 (stereo not drawn) [Cpd II],significantly inhibited IFNγ release,significantly inhibited IFNγ release,significantly inhibited the proliferation of PBL stimulated with PHA in a dose-dependent manner,significantly inhibited the proliferation of PBL,significantly inhibited the proliferation of PBL,reduced the amount of branching and cellular interaction,significantly inhibited IL-13 release,significantly inhibited the release of IL-13,–,–,–
COC(=O)C(c1ccccc1)C1CCCCN1 (stereo not drawn) [methylphenidate],had some effect,increased the release of IFNγ,did not significantly reduce the proliferation,did not,did not,no observable effect,increased the release of IL-13,–,did not significantly suppress the release of IFNγ,showed a significant effect,did not inhibit the release of IL-13
